Results reported in the NIST ThermoML archive (doi:10.1021/je5005752).

Assay: xn = mol fraction of the nth substance listed
Conditions: 101 kPa, Liquid; for viscosity: Falling or rolling sphere viscometry; for mass density: Vibrating tube method

CCCC(=O)OCC [ethyl butanoate] + CC(C)CCO
Conditions | mass density [kg/m3] | viscosity [mPa·s]
288.15 K, x1 = 0.1001 | 820.68 | 3.238
288.15 K, x1 = 0.2 | 828.59 | 2.255
288.15 K, x1 = 0.3 | 836.24 | 1.754
288.15 K, x1 = 0.4 | 843.64 | 1.414
288.15 K, x1 = 0.5 | 850.77 | 1.184
288.15 K, x1 = 0.6 | 857.71 | 1.031
288.15 K, x1 = 0.7 | 864.47 | 0.9059
288.15 K, x1 = 0.7999 | 871.18 | 0.8213
288.15 K, x1 = 0.8995 | 877.79 | 0.7679
288.15 K, x1 = 1 | 884.16 | 0.7224
293.15 K, x1 = 0.1001 | 816.74 | 2.813
293.15 K, x1 = 0.2 | 824.48 | 2
293.15 K, x1 = 0.3 | 831.95 | 1.575
293.15 K, x1 = 0.4 | 839.17 | 1.285
293.15 K, x1 = 0.5 | 846.15 | 1.086
293.15 K, x1 = 0.6 | 852.95 | 0.953
293.15 K, x1 = 0.7 | 859.56 | 0.8432
293.15 K, x1 = 0.7999 | 866.14 | 0.7689
293.15 K, x1 = 0.8995 | 872.63 | 0.7214
293.15 K, x1 = 1 | 878.9 | 0.6808
298.15 K, x1 = 0.1001 | 812.8 | 2.462
298.15 K, x1 = 0.2 | 820.34 | 1.785
298.15 K, x1 = 0.3 | 827.63 | 1.422
298.15 K, x1 = 0.4 | 834.7 | 1.172
298.15 K, x1 = 0.5 | 841.51 | 0.9993
298.15 K, x1 = 0.6 | 848.16 | 0.8831
298.15 K, x1 = 0.7 | 854.64 | 0.7864
298.15 K, x1 = 0.7999 | 861.09 | 0.7207
298.15 K, x1 = 0.8995 | 867.46 | 0.6784
298.15 K, x1 = 1 | 873.62 | 0.643
303.15 K, x1 = 0.1001 | 808.84 | 2.164
303.15 K, x1 = 0.2 | 816.19 | 1.598
303.15 K, x1 = 0.3 | 823.31 | 1.288
303.15 K, x1 = 0.4 | 830.2 | 1.073
303.15 K, x1 = 0.5 | 836.86 | 0.9221
303.15 K, x1 = 0.6 | 843.37 | 0.8204
303.15 K, x1 = 0.7 | 849.71 | 0.7345
303.15 K, x1 = 0.7999 | 856.02 | 0.6764
303.15 K, x1 = 0.8995 | 862.27 | 0.6389
303.15 K, x1 = 1 | 868.33 | 0.6072
308.15 K, x1 = 0.1001 | 804.86 | 1.914
308.15 K, x1 = 0.2 | 812.02 | 1.439
308.15 K, x1 = 0.3 | 818.96 | 1.172
308.15 K, x1 = 0.4 | 825.69 | 0.9851
308.15 K, x1 = 0.5 | 832.19 | 0.853
308.15 K, x1 = 0.6 | 838.55 | 0.7639
308.15 K, x1 = 0.7 | 844.75 | 0.6872
308.15 K, x1 = 0.7999 | 850.94 | 0.6355
308.15 K, x1 = 0.8995 | 857.07 | 0.6026
308.15 K, x1 = 1 | 863.02 | 0.5736
313.15 K, x1 = 0.1001 | 800.85 | 1.7
313.15 K, x1 = 0.2 | 807.82 | 1.302
313.15 K, x1 = 0.3 | 814.58 | 1.069
313.15 K, x1 = 0.4 | 821.15 | 0.9071
313.15 K, x1 = 0.5 | 827.5 | 0.7907
313.15 K, x1 = 0.6 | 833.71 | 0.7128
313.15 K, x1 = 0.7 | 839.78 | 0.6437
313.15 K, x1 = 0.7999 | 845.83 | 0.5975
313.15 K, x1 = 0.8995 | 851.85 | 0.569
313.15 K, x1 = 1 | 857.7 | 0.5425
318.15 K, x1 = 0.1001 | 796.81 | 1.516
318.15 K, x1 = 0.2 | 803.6 | 1.181
318.15 K, x1 = 0.3 | 810.18 | 0.9787
318.15 K, x1 = 0.4 | 816.58 | 0.8373
318.15 K, x1 = 0.5 | 822.78 | 0.7346
318.15 K, x1 = 0.6 | 828.85 | 0.6658
318.15 K, x1 = 0.7 | 834.78 | 0.6038
318.15 K, x1 = 0.7999 | 840.71 | 0.5626
318.15 K, x1 = 0.8995 | 846.61 | 0.538
318.15 K, x1 = 1 | 852.36 | 0.5132
323.15 K, x1 = 0.1001 | 792.73 | 1.371
323.15 K, x1 = 0.2 | 799.34 | 1.08
323.15 K, x1 = 0.3 | 805.76 | 0.8983
323.15 K, x1 = 0.4 | 811.99 | 0.7743
323.15 K, x1 = 0.5 | 818.03 | 0.6838
323.15 K, x1 = 0.6 | 823.96 | 0.6195
323.15 K, x1 = 0.7 | 829.75 | 0.5672
323.15 K, x1 = 0.7999 | 835.56 | 0.5303
323.15 K, x1 = 0.8995 | 841.34 | 0.5071
323.15 K, x1 = 1 | 847 | 0.487

CCCC(=O)OCC [ethyl butanoate] + CC(C)CO
Conditions | mass density [kg/m3] | viscosity [mPa·s]
288.15 K, x1 = 0.1 | 816.01 | 2.899
288.15 K, x1 = 0.2001 | 825.5 | 2
288.15 K, x1 = 0.3001 | 834.2 | 1.516
288.15 K, x1 = 0.3999 | 842.57 | 1.24
288.15 K, x1 = 0.5 | 850.43 | 1.057
288.15 K, x1 = 0.5999 | 857.77 | 0.9319
288.15 K, x1 = 0.7001 | 864.75 | 0.8287
288.15 K, x1 = 0.8001 | 871.45 | 0.785
288.15 K, x1 = 0.8997 | 877.93 | 0.7449
288.15 K, x1 = 1 | 884.16 | 0.7224
293.15 K, x1 = 0.1 | 811.92 | 2.51
293.15 K, x1 = 0.2001 | 821.21 | 1.768
293.15 K, x1 = 0.3001 | 829.72 | 1.363
293.15 K, x1 = 0.3999 | 837.92 | 1.129
293.15 K, x1 = 0.5 | 845.64 | 0.9727
293.15 K, x1 = 0.5999 | 852.86 | 0.8638
293.15 K, x1 = 0.7001 | 859.73 | 0.7883
293.15 K, x1 = 0.8001 | 866.33 | 0.7356
293.15 K, x1 = 0.8997 | 872.73 | 0.7006
293.15 K, x1 = 1 | 878.9 | 0.6808
298.15 K, x1 = 0.1 | 807.82 | 2.19
298.15 K, x1 = 0.2001 | 816.89 | 1.571
298.15 K, x1 = 0.3001 | 825.21 | 1.233
298.15 K, x1 = 0.3999 | 833.26 | 1.032
298.15 K, x1 = 0.5 | 840.84 | 0.8977
298.15 K, x1 = 0.5999 | 847.92 | 0.8022
298.15 K, x1 = 0.7001 | 854.69 | 0.7366
298.15 K, x1 = 0.8001 | 861.2 | 0.6907
298.15 K, x1 = 0.8997 | 867.52 | 0.6599
298.15 K, x1 = 1 | 873.62 | 0.643
303.15 K, x1 = 0.1 | 803.67 | 1.92
303.15 K, x1 = 0.2001 | 812.54 | 1.406
303.15 K, x1 = 0.3001 | 820.68 | 1.118
303.15 K, x1 = 0.3999 | 828.56 | 0.9462
303.15 K, x1 = 0.5 | 836 | 0.8309
303.15 K, x1 = 0.5999 | 842.97 | 0.7472
303.15 K, x1 = 0.7001 | 849.63 | 0.6895
303.15 K, x1 = 0.8001 | 856.05 | 0.6488
303.15 K, x1 = 0.8997 | 862.29 | 0.6217
303.15 K, x1 = 1 | 868.33 | 0.6072
308.15 K, x1 = 0.1 | 799.49 | 1.693
308.15 K, x1 = 0.2001 | 808.15 | 1.262
308.15 K, x1 = 0.3001 | 816.12 | 1.018
308.15 K, x1 = 0.3999 | 823.84 | 0.8702
308.15 K, x1 = 0.5 | 831.14 | 0.7709
308.15 K, x1 = 0.5999 | 837.99 | 0.6967
308.15 K, x1 = 0.7001 | 844.55 | 0.6458
308.15 K, x1 = 0.8001 | 850.88 | 0.6101
308.15 K, x1 = 0.8997 | 857.04 | 0.5862
308.15 K, x1 = 1 | 863.02 | 0.5736
313.15 K, x1 = 0.1 | 795.27 | 1.501
313.15 K, x1 = 0.2001 | 803.72 | 1.137
313.15 K, x1 = 0.3001 | 811.51 | 0.9295
313.15 K, x1 = 0.3999 | 819.09 | 0.8021
313.15 K, x1 = 0.5 | 826.25 | 0.7166
313.15 K, x1 = 0.5999 | 832.98 | 0.6507
313.15 K, x1 = 0.7001 | 839.44 | 0.6059
313.15 K, x1 = 0.8001 | 845.69 | 0.5742
313.15 K, x1 = 0.8997 | 851.78 | 0.5531
313.15 K, x1 = 1 | 857.7 | 0.5425
318.15 K, x1 = 0.1 | 791 | 1.337
318.15 K, x1 = 0.2001 | 799.25 | 1.029
318.15 K, x1 = 0.3001 | 806.87 | 0.8513
318.15 K, x1 = 0.3999 | 814.29 | 0.7413
318.15 K, x1 = 0.5 | 821.33 | 0.6676
318.15 K, x1 = 0.5999 | 827.95 | 0.6086
318.15 K, x1 = 0.7001 | 834.31 | 0.569
318.15 K, x1 = 0.8001 | 840.47 | 0.5409
318.15 K, x1 = 0.8997 | 846.5 | 0.5224
318.15 K, x1 = 1 | 852.36 | 0.5132
323.15 K, x1 = 0.1 | 786.67 | 1.219
323.15 K, x1 = 0.2001 | 794.73 | 0.9403
323.15 K, x1 = 0.3001 | 802.18 | 0.785
323.15 K, x1 = 0.3999 | 809.46 | 0.6914
323.15 K, x1 = 0.5 | 816.36 | 0.6257
323.15 K, x1 = 0.5999 | 822.87 | 0.5716
323.15 K, x1 = 0.7001 | 829.14 | 0.5382
323.15 K, x1 = 0.8001 | 835.23 | 0.5126
323.15 K, x1 = 0.8997 | 841.18 | 0.4958
323.15 K, x1 = 1 | 847 | 0.487
